Measurements published in patent publication US8598084B2, “Synergistic herbicide/insecticide composition containing certain pyridine carboxylic acids and certain insecticides” (priority 2010, dated 2013).

Key:
Format in all cases: in vivo
[1] = test system: wild pansy (Viola tricolor L; VIOTR); test: Postemergence herbicidal activity of mixtures, greenhouse, visual injury vs control; settings: Viola tricolor, post-emergence, read-out: Ob (observed injury)
Procedure: (§1) Evaluation of Postemergence Herbicidal Activity of Mixtures in Cereal Crops
(§2) Seeds of the desired test plant species were planted in Sun Gro MetroMix® 306 planting mixture, which typically has a pH of 6.0 to 6.8 and an organic matter content of about 30 percent, in plastic pots with a surface area of 103.2 square centimeters (cm^2). When required to ensure good germination and healthy plants, a fungicide treatment and/or other chemical or physical treatment was applied. The plants were grown for 7-36 days (d) in a greenhouse with an approximate 14 hour (h) photoperiod which was maintained at about 18° C. during the day and 17° C. during the night. Nutrients and water were added on a regular basis and supplemental lighting was provided with overhead metal halide 1000-Watt lamps as necessary. The plants were employed for testing when they reached the second or third true leaf stage.
(§3) Treatments consisted of an insecticidal compound (as listed in Tables 1 through 18) and the cereal herbicide, 4-amino-3-chloro-6-(4-chloro-2-fluoro-3-methoxyphenyl)pyridine-2-carboxylic acid, alone and in combination. Weighed amounts of esters (methyl) or salts (triethylammonium, TEA) of 4-amino-3-chloro-6-(4-chloro-2-fluoro-3-methoxyphenyl)pyridine-2-carboxylic acid (Compound I) were placed in 25 milliliter (mL) glass vials and dissolved in a volume of 97:3 volume per volume (v/v) acetone/dimethyl sulfoxide (DMSO) to obtain 4.5 milligrams active ingredient per mL (mg ai/mL) concentrated solutions. […] The concentrated solutions of Compound I were diluted to 1.5 mg ai/mL with the addition of 2 volumes of an aqueous mixture containing acetone, water, isopropyl alcohol, DMSO, Agri-dex crop oil concentrate, and Triton® X-77 surfactant in a 64.7:26.0:6.7:2.0:0.7:0.01 v/v ratio. A dilution solution was prepared by mixing 1 volume of 97:3 v/v acetone/DMSO and 2 volumes of an aqueous mixture containing acetone, water, isopropyl alcohol, DMSO, Agri-dex crop oil concentrate, and Triton® X-77 surfactant in a 64.7:26.0:6.7:2.0:0.7:0.01 v/v ratio. Compound requirements are based upon a 12 mL application volume at a rate of 187 liters per hectare (L/ha). The concentrated solutions of the cereal insecticides were prepared following the same procedure. Weighed amounts of insecticide were placed in 25 milliliter (mL) glass vials and dissolved in a volume of 97:3 v/v acetone/DMSO to obtain concentrated insecticide solutions. The concentrated solutions of the safener were prepared following the same procedure. Weighed amounts of safener were placed in 25 mL glass vials and dissolved in a volume of 97:3 v/v acetone/DMSO to obtain concentrated safener solutions. The concentrated solutions were diluted to 0.75 mg/mL with an aqueous mixture of 1.5% v/v of Agri-dex crop oil concentrate.
(§4) Spray solutions of the cereal herbicide and the insecticidal compound mixtures were prepared by adding the concentrated solutions to the appropriate amount of dilution solution to form 12 mL spray solution with active ingredients in combinations. Spray solutions of the cereal herbicide, herbicide safener and the insecticidal compound mixtures were prepared by adding the concentrated solutions to the appropriate amount of dilution solution to form 12 mL spray solution with active ingredients in combinations. Formulated compounds were applied to the plant material with an overhead Mandel track sprayer equipped with 8002E nozzles calibrated to deliver 187 L/ha over an application area of 0.503 square meters (m^2) at a spray height of 18 inches […] above average plant canopy. Control plants were sprayed in the same manner with the solvent blank.
(§5) The treated plants and control plants were placed in a greenhouse as described above and watered by sub-irrigation to prevent wash-off of the test compounds. […]

[2] = test system: bird's-eye speedwell (Veronica persica L; VERPE); test: as above; settings: Veronica persica, post-emergence, read-out: Ob (observed injury);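 note: visual score 0 means no injury and 100 means complete kill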
Procedure: as §1, §2, §3, §4, §5

[3] = test system: kochia (Kochia scoparia L; KCHSC); test: as above; settings: Bassia scoparia, post-emergence, read-out: Ob (observed injury)
Procedure: as §1, §2, §3, §4, §5

[4] = test system: scented mayweed (Matricaria chamomila L; MATCH); test: as above; settings: Matricaria, post-emergence, read-out: Ob (observed injury)
Procedure: as §1, §2, §3, §4, §5

[5] = test system: Russian thistle (Salsola iberica L; SASKR); test: as above; settings: Salsola tragus, post-emergence, read-out: Ob (observed injury)
Procedure: as §1, §2, §3, §4, §5

[6] = test system: wheat (Triticum aestivum L; TRZAS); test: Postemergence crop injury and safening, greenhouse, visual injury vs control; settings: crop injury
Procedure: as §1, §2, §3, §4, §5

[7] = test system: barley (Hordeum vulgare L; HORVS); test: as above; settings: crop injury
Procedure: as §1, §2, §3, §4, §5

[8] = test system: redroot pigweed (Amaranthus retroflexus L; AMARE); test: Postemergence herbicidal activity of mixtures, greenhouse, visual injury vs control; settings: 48 g/ha alone
Procedure: as §1, §2, §3, §4, §5

[9] = test system: Canada thistle (Cirsium arvense L; CIRAR); test: as above; settings: 48 g/ha alone
Procedure: as §1, §2, §3, §4, §5

CC1(C)[C@H](C(=O)O[C@H](C#N)c2cccc(Oc3ccccc3)c2)[C@@H]1C=C(Br)Br [Deltamethrin, (S)-cyano(3-phenoxyphenyl)methyl (1R,3R)-3-(2,2-dibromoethenyl)-2,2-dimethylcyclopropanecarboxylate, reference compound]
0%: pest or weed control at 1.25 g/ha ([1]; 1.25 g/ha alone) | pest or weed control at 1.25 g/ha ([2]; 1.25 g/ha alone) | pest or weed control at 1.25 g/ha ([3]; 1.25 g/ha alone) | pest or weed control at 1.25 g/ha ([4]; 1.25 g/ha alone) | pest or weed control at 1.25 g/ha ([5]; 1.25 g/ha alone)

CNC(=O)CSP(=S)(OC)OC [Dimethoate, O,O-dimethyl S-[2-(methylamino)-2-oxoethyl]phosphorodithioate, reference compound]
0%: pest or weed control at 170 g/ha ([1]; 170 g/ha alone) | pest or weed control at 170 g/ha ([2]; 170 g/ha alone) | pest or weed control at 170 g/ha ([3]; 170 g/ha alone) | pest or weed control at 170 g/ha ([5]; 170 g/ha alone)

N#CCNC(=O)c1cnccc1C(F)(F)F [Flonicamid, N-(cyanomethyl)-4-(trifluoromethyl)-3-pyridinecarboxamide]
0%: pest or weed control at 17.5 g/ha ([1]; 17.5 g/ha alone) | pest or weed control at 17.5 g/ha ([4]; 17.5 g/ha alone) | pest or weed control at 17.5 g/ha ([5]; 17.5 g/ha alone)

CCOC(=O)CC(SP(=S)(OC)OC)C(=O)OCC (centres unmarked) [Malathion, diethyl[(dimethoxythiophosphinothioyl)thio]butanedioate, reference compound]
0%: pest or weed control at 280 g/ha ([1]; 280 g/ha alone) | pest or weed control at 1120 g/ha ([1]; 1120 g/ha alone) | pest or weed control at 280 g/ha ([3]; 280 g/ha alone) | pest or weed control at 280 g/ha ([4]; 280 g/ha alone) | pest or weed control at 280 g/ha ([5]; 280 g/ha alone) | Ob (observed injury) ([6]; 280 g/ha alone) | Ob (observed injury) ([6]; 1120 g/ha alone) | Ob (observed injury) ([7]; 280 g/ha alone) | Ob (observed injury) ([7]; 1120 g/ha alone)

Cc1nc(N(C)C)nc(OC(=O)N(C)C)c1C [Pirimicarb, 2-(dimethylamino)-5,6-dimethyl-4-pyrimidinyl dimethylcarbamate, reference compound]
0%: pest or weed control at 35 g/ha ([1]; 35 g/ha alone) | pest or weed control at 35 g/ha ([2]; 35 g/ha alone) | pest or weed control at 35 g/ha ([3]; 35 g/ha alone) | pest or weed control at 35 g/ha ([4]; 35 g/ha alone) | pest or weed control at 35 g/ha ([5]; 35 g/ha alone)

CC(C)[C@@H](Nc1ccc(C(F)(F)F)cc1Cl)C(=O)OC(C#N)c1cccc(Oc2ccccc2)c1 (stereo partly drawn) [Tau-fluvalinate, cyano(3-phenoxyphenyl)methyl N-[2-chloro-4-(trifluoromethyl)phenyl]-D-valinate, reference compound]
0%: pest or weed control at 48 g/ha ([1]; 48 g/ha alone) | Ob (observed injury) [8] | Ob (observed injury) [9]
